Data reported in the supplement of paper PMC10307832.

Experiments:
Experiment in all cases: relative viability (nuclei count vs DMSO), 5 days (fraction); higher = more cells survive
Bosutinib + Pictilisib = compound: COc1cc(Nc2c(C#N)cnc3cc(OCCCN4CCN(C)CC4)c(OC)cc23)c(Cl)cc1Cl [Bosutinib] + CS(=O)(=O)N1CCN(Cc2cc3nc(-c4cccc5[nH]ncc45)nc(N4CCOCC4)c3s2)CC1 [Pictilisib] (partner 1 µM)
Procedure, shortened: (§1)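 A single step with final 0.05% Triton X-100, 1% formaldehyde and 1 ug/ml Hoechst fixed the cells and stained nuclei 5 days after treatment. Lung cancer cell lines in 1536-well plates had been treated by pin tool the day after seeding with one drug alone or a fixed anchor-drug dose plus five library-drug doses (not always all listed) in √10 steps, and nuclei were counted on 4× images. Relative viability is the ratio of nuclei in treated wells to nuclei in vehicle wells, taken as the median of duplicate plates.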

Bosutinib + Linsitinib = compound: COc1cc(Nc2c(C#N)cnc3cc(OCCCN4CCN(C)CC4)c(OC)cc23)c(Cl)cc1Cl [Bosutinib] + C[C@]1(O)C[C@@H](c2nc(-c3ccc4ccc(-c5ccccc5)nc4c3)c3c(N)nccn32)C1 [Linsitinib] (partner 1 µM)
Procedure, shortened: as §1

Bosutinib + Luminespib = compound: COc1cc(Nc2c(C#N)cnc3cc(OCCCN4CCN(C)CC4)c(OC)cc23)c(Cl)cc1Cl [Bosutinib] + CCNC(=O)c1noc(-c2cc(C(C)C)c(O)cc2O)c1-c1ccc(CN2CCOCC2)cc1 [Luminespib] (partner 0.01 µM)
Procedure, shortened: as §1

Bosutinib + Phenformin = compound: COc1cc(Nc2c(C#N)cnc3cc(OCCCN4CCN(C)CC4)c(OC)cc23)c(Cl)cc1Cl [Bosutinib] + N=C(N)NC(=N)NCCc1ccccc1 [Phenformin] (partner 250 µM)
Procedure, shortened: as §1

Bosutinib + Crizotinib = compound: COc1cc(Nc2c(C#N)cnc3cc(OCCCN4CCN(C)CC4)c(OC)cc23)c(Cl)cc1Cl [Bosutinib] + C[C@@H](Oc1cc(-c2cnn(C3CCNCC3)c2)cnc1N)c1c(Cl)ccc(F)c1Cl [Crizotinib] (partner 1 µM)
Procedure, shortened: as §1

Cell Line	relative viability (Bosutinib + Pictilisib; first compound 0.01 µM)	relative viability (Bosutinib + Pictilisib; first compound 0.03162 µM)	relative viability (Bosutinib + Pictilisib; first compound 0.1 µM)	relative viability (Bosutinib + Pictilisib; first compound 1 µM)	relative viability (Bosutinib + Linsitinib; first compound 0.01 µM)	relative viability (Bosutinib + Linsitinib; first compound 0.03162 µM)	relative viability (Bosutinib + Linsitinib; first compound 0.1 µM)	relative viability (Bosutinib + Linsitinib; first compound 1 µM)	relative viability (Bosutinib + Luminespib; first compound 0.01 µM)	relative viability (Bosutinib + Luminespib; first compound 0.03162 µM)	relative viability (Bosutinib + Luminespib; first compound 0.1 µM)	relative viability (Bosutinib + Luminespib; first compound 1 µM)	relative viability (Bosutinib + Phenformin; first compound 0.01 µM)	relative viability (Bosutinib + Phenformin; first compound 0.03162 µM)	relative viability (Bosutinib + Phenformin; first compound 0.1 µM)	relative viability (Bosutinib + Phenformin; first compound 1 µM)	relative viability (Bosutinib + Crizotinib; first compound 0.01 µM)	relative viability (Bosutinib + Crizotinib; first compound 0.03162 µM)	relative viability (Bosutinib + Crizotinib; first compound 0.1 µM)	relative viability (Bosutinib + Crizotinib; first compound 1 µM)
LU99A	0.324	0.321	0.375	0.345	0.587	0.576	0.584	0.678	0.231	0.258	0.242	0.242	0.92	0.781	0.832	0.478	0.527	0.561	0.563	0.647
SW 1573	0.508	0.516	0.492	0.432	0.778	0.75	0.807	0.801	0.267	0.956	0.246	0.183	0.411	0.357	0.358	0.27	0.655	0.813	0.917	0.782
HOP-62	0.898	0.787	0.698	0.819	0.881	0.949	1.01	1.11	0.993	0.895	0.937	0.904	0.699	0.706	0.65	0.741	0.897	0.949	0.964	0.986
UMC-11	0.889	0.81	0.875	0.764	0.916	0.981	0.967	0.866	0.967	1.16	1.05	0.806	0.321	0.312	0.312	0.247	0.597	0.622	0.555	0.579
LCLC-103H	0.632	0.68	0.702	0.646	1.11	1.12	1.04	1.04	0.958	0.933	1.02	0.975	0.338	0.322	0.327	0.409	1.03	1.11	0.992	0.849
NCI-H1734	0.507	0.427	0.447	0.447	0.88	0.945	0.914	0.706	0.172	0.181	0.217	0.196	0.455	0.382	0.375	0.312	0.737	0.656	0.658	0.537
EKVX	0.427	0.469	0.41	0.309	0.974	0.982	1	0.539	0.799	0.914	0.834	0.633	0.213	0.248	0.236	0.223	0.895	0.753	1.01	0.481
HARA	0.442	0.453	0.45	0.352	1.01	0.913	0.892	0.629	0.885	0.549	0.682	0.741	0.522	0.431	0.376	0.45	1.14	0.955	0.995	0.642
EMC-BAC-2	0.576	0.507	0.52	0.506	0.852	0.791	0.832	0.733	1.22	1.07	1.17	1.04	0.464	0.545	0.488	0.376	0.763	0.756	0.789	0.759
PC-14	0.61	0.588	0.449	0.125	0.927	1.01	0.884	0.285	0.109	0.394	0.126	0.16	0.539	0.585	0.5	0.277	0.807	0.928	0.788	0.313
NCI-H520	0.309	0.279	0.288	0.281	1.05	1.05	1.03	0.767	0.199	0.236	0.223	0.214	0.677	0.64	0.507	0.393	0.806	0.74	0.635	0.676
NCI-H1755	0.45	0.497	0.509	0.287	0.952	1.03	1.02	0.954	0.465	0.454	0.45	0.351	0.635	0.682	0.659	0.588	0.804	0.953	0.903	0.688
NCI-H2087	0.753	0.865	0.972	0.798	0.871	1.08	0.779	0.94	0.194	0.154	0.146	0.151	0.563	0.43	0.411	0.457	0.905	0.991	0.817	0.908
